Measured values from ChEMBL document CHEMBL3872243, “Synthesis of new morpholine-connected pyrazolidine derivatives and their antimicrobial, antioxidant, and cytotoxic activities” (2017).
≈ marks a conversion by molar mass, not a printed value.

Tests used:
Assay type in all cases: functional
Staphylococcus aureus = assay: Antibacterial activity against Staphylococcus aureus after 24 hrs by two fold dilution method
[1] = Cytotoxicity against human HepG2 cells after 48 hrs by MTT assay; details: HepG2, 48 h
[2] = Cytotoxicity against human MCF7 cells after 48 hrs by MTT assay; details: MCF7, 48 h
Candida albicans = assay: Antifungal activity against Candida albicans after 24 hrs by two fold dilution method
[3] = Cytotoxicity against human HeLa cells after 48 hrs by MTT assay
Klebsiella pneumoniae = assay: Antibacterial activity against Klebsiella pneumoniae after 24 hrs by two fold dilution method
[4] = Antioxidant activity assessed as ABTS radical scavenging activity at 100 ug/ml after 30 mins
[5] = Antifungal activity against Microsporum audouinii after 24 hrs by two fold dilution method
Escherichia coli = assay: Antibacterial activity against Escherichia coli after 24 hrs by two fold dilution method
[6] = Antioxidant activity assessed as reduction in AAPH free radical-induced linoleic acid peroxidation activity measured at 100 ug/ml by UV spectroscopic analysis; parameters: scale not given: the % may be the effect or the level left
Pseudomonas aeruginosa = assay: Antibacterial activity against Pseudomonas aeruginosa after 24 hrs by two fold dilution method
[7] = Antifungal activity against Cryptococcus neoformans after 24 hrs by two fold dilution method
Aspergillus niger = assay: Antifungal activity against Aspergillus niger after 24 hrs by two fold dilution method
[8] = tested on: Staphylococcus epidermidis; assay: Antibacterial activity against Staphylococcus epidermidis after 24 hrs by two fold dilution method

Row | SMILES | MIC (Staphylococcus aureus) [µg/mL] | GI50 [1] [µM] | LC50 [1] [µM] | TGI [1] [µM] | GI50 [2] [µM] | LC50 [2] [µM] | TGI [2] [µM] | MIC (Candida albicans) [µg/mL] | GI50 [3] [µM] | LC50 [3] [µM] | TGI [3] [µM] | MIC (Klebsiella pneumoniae) [µg/mL] | Activity [4] [%] | MIC [5] [µg/mL] | MIC (Escherichia coli) [µg/mL] | Activity [6] [%] | MIC (Pseudomonas aeruginosa) [µg/mL] | MIC [7] [µg/mL] | MIC (Aspergillus niger) [µg/mL] | MIC [8] [µg/mL]
1 | CN(C)c1ccc(C(N2CCOCC2)N2C(c3ccccc3)CC(O)N2c2ccc([N+](=O)[O-])cc2[N+](=O)[O-])cc1 (configuration not stated) | > 100 | 35.8 | > 100 | 62.3 | 13.9 | > 100 | 28.9 | 2 (≈ 3.65 µM) | 29.2 | > 100 | 57.9 | 64 (≈ 117 µM) | 31 | > 100 | 8 (≈ 14.6 µM) | 29.6 | 64 (≈ 117 µM) | > 100 | > 100 | 2 (≈ 3.65 µM)
2 | O=C(O)c1cn(C2CC2)c2cc(N3CCNCC3)c(F)cc2c1=O [CIPROFLOXACIN] | 0.5 (≈ 1.51 µM) | – | – | – | – | – | – | – | – | – | – | 2 (≈ 6.04 µM) | – | – | – | – | 1 (≈ 3.02 µM) | – | – | 4 (≈ 12.1 µM)
3 | O=[N+]([O-])c1ccc(N2C(O)CC(c3ccccc3)N2C(c2ccccc2)N2CCOCC2)c([N+](=O)[O-])c1 (configuration not stated) | – | 43.2 | > 100 | 78.3 | – | > 100 | – | > 100 | – | > 100 | – | > 100 | 34.6 | – | 8 (≈ 15.8 µM) | 21.8 | – | – | > 100 | –
4 | O=[N+]([O-])c1ccc(N2C(O)CC(c3ccccc3)N2C(c2ccc(O)cc2)N2CCOCC2)c([N+](=O)[O-])c1 (configuration not stated) | – | 36.3 | > 100 | 65.3 | – | > 100 | – | – | 41.3 | > 100 | 87.2 | 8 (≈ 15.3 µM) | 81.6 | 8 (≈ 15.3 µM) | > 100 | 75.4 | 15 (≈ 28.8 µM) | – | > 100 | –
5 | O=[N+]([O-])c1ccc(N2C(O)CC(c3ccccc3)N2C(c2cncs2)N2CCOCC2)c([N+](=O)[O-])c1 (configuration not stated) | > 100 | 32 | 89.3 | 61.3 | 34 | > 100 | 67.4 | 32 (≈ 62.4 µM) | 37.9 | 78.9 | 51.9 | > 100 | 24.6 | 64 (≈ 125 µM) | 2 (≈ 3.9 µM) | 21.5 | 64 (≈ 125 µM) | 32 (≈ 62.4 µM) | 32 (≈ 62.4 µM) | 32 (≈ 62.4 µM)
6 | O=[N+]([O-])c1ccc(N2C(O)CC(c3ccccc3)N2C(c2ccc3c(c2)OCO3)N2CCOCC2)c([N+](=O)[O-])c1 (configuration not stated) | > 100 | 21.3 | 62.1 | 41 | 12.9 | 87.2 | 45.3 | 16 (≈ 29.1 µM) | 52.9 | > 100 | 81.3 | 64 (≈ 116 µM) | 34.5 | 32 (≈ 58.2 µM) | > 100 | 29.8 | 2 (≈ 3.64 µM) | 64 (≈ 116 µM) | 8 (≈ 14.6 µM) | > 100
7 | O=[N+]([O-])c1ccc(C(N2CCOCC2)N2C(c3ccccc3)CC(O)N2c2ccc([N+](=O)[O-])cc2[N+](=O)[O-])cc1 (configuration not stated) | 1 (≈ 1.82 µM) | 49 | > 100 | 77.3 | 20.8 | > 100 | 59.3 | – | 8.9 | 43.9 | 16.8 | – | 58.3 | 32 (≈ 58.1 µM) | 64 (≈ 116 µM) | 47.9 | – | 32 (≈ 58.1 µM) | – | 2 (≈ 3.63 µM)
8 | O=[N+]([O-])c1ccc(N2C(O)CC(c3ccccc3)N2C(c2c[nH]c3ccccc23)N2CCOCC2)c([N+](=O)[O-])c1 (configuration not stated) | 1 (≈ 1.84 µM) | 15.9 | 54.8 | 38.2 | 24.4 | 76.3 | 59.3 | 32 (≈ 58.8 µM) | 34.2 | > 100 | 72.1 | > 100 | 27.8 | 8 (≈ 14.7 µM) | > 100 | 34.6 | 8 (≈ 14.7 µM) | 64 (≈ 118 µM) | 16 (≈ 29.4 µM) | > 100
9 | O=[N+]([O-])c1ccc(N2C(O)CC(c3ccccc3)N2C(c2ccccn2)N2CCOCC2)c([N+](=O)[O-])c1 (configuration not stated) | 18 (≈ 35.5 µM) | 29.1 | 67.5 | 46.8 | 18.6 | 52.3 | 41.8 | 8 (≈ 15.8 µM) | 21.6 | 87.4 | 54.7 | 4 (≈ 7.9 µM) | 16.8 | > 100 | > 100 | 51.3 | 32 (≈ 63.2 µM) | 8 (≈ 15.8 µM) | > 100 | > 100
10 | O=[N+]([O-])c1ccc(N2C(O)CC(c3ccccc3)N2C(c2ccco2)N2CCOCC2)c([N+](=O)[O-])c1 (configuration not stated) | 20 (≈ 40.4 µM) | 41.4 | > 100 | 64.8 | 32.1 | 82 | 56.4 | 16 (≈ 32.3 µM) | 30.8 | 80.7 | 52.1 | 16 (≈ 32.3 µM) | 20.7 | 0.5 (≈ 1.01 µM) | 64 (≈ 129 µM) | 42.8 | 64 (≈ 129 µM) | > 100 | 2 (≈ 4.04 µM) | 16 (≈ 32.3 µM)
11 | COc1cccc2c1C(=O)c1c(O)c3c(c(O)c1C2=O)C[C@@](O)(C(=O)CO)C[C@@H]3O[C@H]1C[C@H](N)[C@H](O)[C@H](C)O1 [DOXORUBICIN] | – | 0.01 | – | 0.13 | 0.02 | – | 0.21 | – | 0.05 | – | 0.41 | – | – | – | – | – | – | – | – | –
12 | Cc1c(C)c2c(c(C)c1O)CCC(C)(C(=O)O)O2 (configuration not stated) | – | – | – | – | – | – | – | – | – | – | – | – | 85.2 | – | – | 62.3 | – | – | – | –
13 | CC(C)=CCC/C(C)=C\C(N1CCOCC1)N1C(c2ccccc2)CC(O)N1c1ccc([N+](=O)[O-])cc1[N+](=O)[O-] (configuration not stated) | > 100 | 38.1 | > 100 | 69.1 | 7.8 | 40.4 | 21.9 | 0.5 (≈ 0.906 µM) | 13.8 | 71.4 | 29.6 | 8 (≈ 14.5 µM) | 91.3 | 16 (≈ 29 µM) | 64 (≈ 116 µM) | 84.5 | 1 (≈ 1.81 µM) | 32 (≈ 58 µM) | 8 (≈ 14.5 µM) | 8 (≈ 14.5 µM)
14 | Clc1ccccc1C(c1ccccc1)(c1ccccc1)n1ccnc1 [CLOTRIMAZOLE] | – | – | – | – | – | – | – | 1 (≈ 2.9 µM) | – | – | – | – | – | 0.5 (≈ 1.45 µM) | – | – | – | 0.5 (≈ 1.45 µM) | 2 (≈ 5.8 µM) | –
